Data set [1] is described as follows: Plasma protein binding (RED), human. Format: in vitro ADME. As to the method:
TEFLON Base Plate wells were rinsed with 20% ethanol for 10 minutes. Ethanol was then removed and wells were rinsed with ultrapure water and allowed to dry. RED (rapid equilibrium dialysis) inserts from Thermo Scientific (Pierce) were placed (open end up) into the wells of the base plate. All liquid was dispensed and transfer steps were performed with the FREEDOM EVO automated liquid handler (Tecan US). The sample chambers (red ring) contained 300 μl of a mixture of plasma and compound, and the buffer chambers received 500 μl of dialysis buffer (1×PBS, pH7.4). Duplicate inserts were made for each concentration tested. The base plate was covered with sealing tape and incubated at 37° C. on an orbital shaker at 350 rpm for 4 hours. After the incubation time, equal volumes from both chambers were removed and transferred to a 96 well plate containing either plasma or buffer. […] The amount of compound in the supernatant was determined by LC/MS/MS (Applied Biosystems, Sciex API4000 Q-Trap). The percent of free and bound compounds were calculated with the following formula: % of bound parent compound=[(amount of compound in donor-receiver/amount of compound in donor)×100]. Results reported are the mean of each reaction duplicate, normalized to the internal standard, and expressed as a percent compound bound after the incubation time. […]

Data set [2] can be described thus: Chemical stability (hydrolytic). The class given is physicochemical. The settings on record: PBS with 50% acetonitrile, pH 7.4; % remaining after 48 hours at room temperature. The protocol: The stability of compounds in 1×PBS, pH 7.4, and at room temperature, was determined. Stability was also assessed in the presence of 50% ACN. Compounds were diluted and time 0 hour aliquots were collected and transferred to acetonitrile (spiked with an internal standard). The remainder of the volume was incubated for 48 hours, with additional aliquots collected at different time points (6 total). The amount of compound was determined by LC/MS/MS. The parent compound remaining was calculated by the following formula: % parent compound remaining=[(concentration at x hour/concentration at 0 hour)×100]. Results are the mean of each reaction triplicate, normalized to the internal standard, and expressed as a percent compound remaining after 48 hours.

The target in data set [3] is scNS4A-NS3 (Hepatitis C virus genotype 1b, UniProt Q9WMX2). In words: NS3 protease assay (ENZOLYTE 520), full-length. Format: biochemical, hepatitis C virus genotype 1b(con1). More on the design: other: 100 μM, highest concentration tested; other: versus P4; There is also a His tag. As to the method:
All oligonucleotides were purchased from Integrated DNA Technologies (IDT, Coralville, Iowa). Primuline derivatives were synthesized and purified as described herein. Three different NS3 proteins were used in this study. Two were truncated C-terminally His-tagged NS3 proteins lacking the N-terminal protease, called NS3h, the third was a full-length NS3 with the portion of NS4A needed for protease activation fused to its N-terminus, called scNS4A-NS3 (Howe, et al. (1999) Protein Sci. 8:1332-41), and the fourth was a 23 kDa scNS4A-NS3 protease fragment lacking the helicase domains, called scNS4A-NS3p (Protein One, Rockville, Md.). NS3h was expressed from two different HCV strains. NS3h_1b(con1) was from the con1 strain of genotype 1b (GENBANK accession AB114136), and NS3h_2a(JFH1) was from the JFH1 strain of HCV genotype 2a (GENBANK accession AJ238799). […] His-tagged recombinant NS3h_1b(con1), NS3h_2a(JFH1), and scNS4A-NS3 (also from genotype 1b(con1)) were expressed, and purified as previously described (Frick, et al. (2010) supra; Lam, et al. (2003) J. Virol. 77:3950-3961). […]
All NS3 protease assays were carried out using the 5-Carboxyfluorescein-labeled substrate from the AnaSpec. […] Assays were carried out in a total volume of 20 μl in black 384-well plates with fluorescence at 520 nm measured using a BMG FLUOstar Omega fluorescence spectrophotometer. […]

The test system of data set [4] is NS3 protease in Huh7.5/HCV Con1sg Rluc cells. Description: IPS-1 (MAVS)-based reporter cell-based protease assay. More on the design: species or system hepatitis C virus. The conditions noted are these: 10 μM, 72 hours.
Description: An IPS-1 (also known as MAVS)-based reporter assay was used for cell-based protease assay. […] RFP-NLS-IPS pseudoparticles were transduced into Huh7.5/HCV Con1sg Rluc cells in a 24-well plate containing cover slips and compounds were added to the cells after 6 hours at a 10 μM concentration and after 72 hours from the first addition, cells were fixed in 1% PFA, washed twice with PBS, mounted on glass slides and microscopic analyses were done.
Microscopy was performed with a Nikon Ti-E inverted fluorescence microscope using a 20× and 40×/NA 1.4 objective. Compounds were imaged using DAPI filter 340/40 band-pass excitation and a 435/50 band pass emission filter. For ALEXA 546 and RFP-NLS-IPS, a 528/25 nm band pass excitation filter and 590/60 nm band-pass emission filter were used. Image acquisition was performed with a Q imaging ROLERA camera and the NIS elements basic research imaging software (Nikon). […]
The assay selected (Jones, et al. (2010) supra) uses a fusion protein made from a NS3 protease cellular target called IPS-1 (also known as MAVS) fused to a red fluorescent protein (RFP) and a nuclear localization signal (NLS). Lentivirus expressing the RFP-NLS-IPS-1 was used to transduce the above Rluc subgenomic HCV replicon cell line, and the effect of compounds on the location of RFP-NLS was examined using fluorescence microscopy.
For data set [5], the target named is T1, NS3h_1b(con1) (Hepatitis C virus genotype 1b, UniProt Q9WMX2).
T1 construct: truncated C-terminally His-tagged NS3 proteins lacking the N-terminal protease, called NS3h; His-tag (C); made in house
Description: ATP hydrolysis assay (malachite green). The class given is biochemical. As to the method: A modified “malachite green” assay (Lanzetta, et al. (1979) Anal. Biochem. 100:95-97) was used to measure ATP hydrolysis. Fifty μL reactions contained 25 mM MOPS pH 6.5, 5 mM MgCl2, 2 mM ATP, 5 μg/mL BSA, 0.01% (v/v) TWEEN 20, 0.05 mM DTT, and poly(U) RNA (Saint Louis, Mo.) as indicated. Reactions were initiated by adding NS3h_1b(con1). Reactions were incubated for 15 minutes at 37° C. then stopped by mixing 40 μL of the reaction into 200 μL of the malachite green reagent (3 volumes 0.045% (w/v) malachite green, 1 volume 4.2% ammonium molybdate in 4N HCl, 0.05 volume of 20% TWEEN 20). […] Absorbance at 630 nm was proportional to the concentration of phosphate produced; free phosphate produced was measured against a standard curve.

T1 sequence (Q9WMX2 1192-1657): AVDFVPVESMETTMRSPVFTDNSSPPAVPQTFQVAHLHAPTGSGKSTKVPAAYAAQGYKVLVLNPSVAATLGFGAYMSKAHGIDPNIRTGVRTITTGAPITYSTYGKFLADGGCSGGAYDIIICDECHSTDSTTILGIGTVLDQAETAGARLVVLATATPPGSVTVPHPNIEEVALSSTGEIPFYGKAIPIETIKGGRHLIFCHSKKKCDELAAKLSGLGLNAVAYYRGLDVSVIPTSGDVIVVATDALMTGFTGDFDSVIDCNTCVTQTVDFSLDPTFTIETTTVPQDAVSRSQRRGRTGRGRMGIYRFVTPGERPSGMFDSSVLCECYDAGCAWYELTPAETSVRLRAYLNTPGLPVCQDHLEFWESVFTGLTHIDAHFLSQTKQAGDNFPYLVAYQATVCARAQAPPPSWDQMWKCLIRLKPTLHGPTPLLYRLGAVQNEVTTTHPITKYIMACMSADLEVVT
Sequence of scNS4A-NS3 (Q9WMX2 1027-1657): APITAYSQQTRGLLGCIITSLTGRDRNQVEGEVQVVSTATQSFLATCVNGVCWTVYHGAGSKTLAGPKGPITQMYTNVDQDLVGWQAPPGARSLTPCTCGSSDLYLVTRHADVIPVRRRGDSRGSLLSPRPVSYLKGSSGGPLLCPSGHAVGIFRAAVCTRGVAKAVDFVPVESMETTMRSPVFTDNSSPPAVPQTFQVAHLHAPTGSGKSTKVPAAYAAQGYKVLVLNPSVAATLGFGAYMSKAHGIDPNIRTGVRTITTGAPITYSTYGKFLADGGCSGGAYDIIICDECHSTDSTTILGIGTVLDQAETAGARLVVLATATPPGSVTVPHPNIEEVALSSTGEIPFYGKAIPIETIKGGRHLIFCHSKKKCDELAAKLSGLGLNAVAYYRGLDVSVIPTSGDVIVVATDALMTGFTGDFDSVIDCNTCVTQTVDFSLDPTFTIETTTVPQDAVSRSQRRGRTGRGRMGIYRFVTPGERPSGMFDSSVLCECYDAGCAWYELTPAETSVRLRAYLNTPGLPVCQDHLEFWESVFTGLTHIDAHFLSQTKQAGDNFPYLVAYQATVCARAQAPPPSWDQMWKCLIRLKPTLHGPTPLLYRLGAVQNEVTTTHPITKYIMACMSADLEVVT

Take `Cc1ccc2nc(-c3ccc4nc(-c5ccc(NC(=O)c6cccc(Cl)c6)cc5)sc4c3)sc2c1S(=O)(=O)O` [Compound 17, 2′-(4-(3-chlorobenzamido)phenyl)-6-methyl-[2,6′-bibenzo[d]thiazole]-7-sulfonic acid]: in data set [1] (pH 7.4, 1 μM, read-out: Plasma Protein Binding (% Bound) Human (converted)), the fraction unbound at 4 h, 1 μM was 0.02. In addition, in data set [1] (pH 7.4, 10 μM, read-out: Plasma Protein Binding (% Bound) Human), the fraction unbound at 4 h, 10 μM was found to be 0.01. In data set [2], the “Aqueous Stability” value was 100%. For the same compound, the “times less potent protease inhibitor than compound P4” value in data set [3] (versus P4) turned out to be 50 times.

On to `Cc1ccc2nc(-c3ccc4nc(-c5ccc(NC(=O)c6cc(C(F)(F)F)cc(C(F)(F)F)c6)cc5)sc4c3)sc2c1S(=O)(=O)O` [Compound 24, 2′-(4-(3,5-bis(trifluoromethyl)benzamido)phenyl)-6-methyl-[2,6′-bibenzo[d]thiazole]-7-sulfonic acid], for which, in data set [4], the “nuclear translocation of RFP-NLS (cellular NS3 protease activity)” value is recorded as “did not inhibit nuclear translocation”.

One may read the inhibition as the relative decrease from the control value, in per cent. On to `Cc1ccc2nc(-c3ccc4nc(-c5ccc(N)cc5)sc4c3)sc2c1S(=O)(=O)O` [Compound P2a, 2′-(4-aminophenyl)-6-methyl-[2,6′-bibenzo[d]thiazole]-7-sulfonic acid], for which, in data set [3] (read-out: inhibition of protease), the inhibition at 100 µM was ≤ 50%.

As a reminder, the IC50 is the point on the concentration scale where inhibition reaches its midpoint. High values mean weaker potency, low ones greater potency. As for `Cc1ccc2nc(-c3ccc4nc(-c5ccc6nc(-c7ccc(N)cc7)sc6c5)sc4c3)sc2c1S(=O)(=O)O` [Compound P3, 2″-(4-aminophenyl)-6-methyl-[2,6′:2′,6″-terbenzo[d]thiazole]-7-sulfonic acid], the IC50 in data set [5] is 15 ± 4 µM.

`Cc1ccc2nc(-c3ccc4nc(-c5ccc6nc(-c7ccc8nc(-c9ccc(N)cc9)sc8c7)sc6c5)sc4c3)sc2c1S(=O)(=O)O` [Compound P4, 2′″-(4-aminophenyl)-6-methyl-[2,6′:2″,6′″-quaterbenzo[d]thiazole]-7-sulfonic acid] registered an IC50 in data set [5] of 5 ± 3 µM. In addition, the “effect on NS3 ATP hydrolysis” value in data set [5] (presence and absence of RNA) is “inhibited ATP hydrolysis both in the presence and absence of RNA”.

The values are drawn from US9464064B2, “HCV helicase inhibitors and methods of use thereof” (University of Kansas, priority 2011, dated 2016).
